Measured values: patent publication US8785452B2, “Anti-infective compounds” (priority 2008, dated 2014)
Like-named read-outs stand apart in the source and are kept apart here.

Legend:
[1] = system: M. tuberculosis H37Rv-GFP; test: microbe, parasite or virus in culture; format: cell-based, Mycobacterium tuberculosis; details: Mycobacterium tuberculosis, H37RV, Macrophage; for inhibition at 0.2 µM: read-out: QIM Confirm % Inhibition 0.2 uM; for inhibition at 2 µM: read-out: QIM Confirm % Inhibition 2 uM
[2] = system: M. tuberculosis H37Rv-GFP; test: microbe, parasite or virus in culture; format: cell-based; details: Mycobacterium tuberculosis; for inhibition at 0.2 µM: read-out: QUM Confirm % Inhibition 0.2 uM; for inhibition at 2 µM: read-out: QUM Confirm % Inhibition 2 uM; for inhibition at 20 µM: read-out: QUM Confirm % Inhibition 20 uM
Raw264.7 cells = test: Cell number (CellNb) from image analysis of the phenotypic cell-based assay
[3] = read-out: Primary QIM % Inhibition
[4] = read-out: QIM Confirm % Inhibition 20 uM
[5] = confirmation, 0.2 uM, intracellular
[6] = confirmation, 2 uM, intracellular
[7] = confirmation, 20 uM, read-out: QIM Confirm % Inhibition 20 uM
[8] = primary screen, 20 μM, read-out: Primary QIM % Inhibition

## COc1ccc(OCCNC(=O)c2cc([N+](=O)[O-])cc([N+](=O)[O-])c2)cc1 [IPK 000 028 35]
[1]; [3]
  inhibition at 20 µM: 94.5%
[1]
  inhibition at 0.2 µM: 64.5%
  inhibition at 2 µM: 102%
[1]; [4]
  inhibition at 20 µM: 17.8%
[2]
  inhibition at 0.2 µM: 94%
  inhibition at 2 µM: 98.1%
  inhibition at 20 µM: 48.3%
Raw264.7 cells
  Primary QIM CellNb: 315.3
  QIM Confirm CellNb 0.2 uM: 489.8
  QIM Confirm CellNb 2 uM: 478.6
  QIM Confirm CellNb 20 uM: 308.9

## CCc1nnc(NS(=O)(=O)c2ccc(N)cc2)s1 [IPK 000 035 58]
[1]; [5]
  inhibition at 0.2 µM: 5.1%
[1]; [6]
  inhibition at 2 µM: 34.4%
[1]; [7]
  inhibition at 20 µM: 2.8%
[1]; [8]
  inhibition at 20 µM: -51.3%
[2]
  inhibition at 0.2 µM: 45.1%
  inhibition at 2 µM: 46.4%
  inhibition at 20 µM: 65.3%
Raw264.7 cells; confirmation, 0.2 uM
  QIM Confirm CellNb 0.2 uM: 292.3
Raw264.7 cells; confirmation, 2 uM
  QIM Confirm CellNb 2 uM: 330.0
Raw264.7 cells; confirmation, 20 uM
  QIM Confirm CellNb 20 uM: 279.9
Raw264.7 cells; primary screen, 20 μM
  Primary QIM CellNb: 104.0

## O=C(N/N=C/c1ccccc1O)c1ccncc1 [IPK 000 041 45]
[1]; [5]
  inhibition at 0.2 µM: 56.7%
[1]; [6]
  inhibition at 2 µM: 103%
[1]; [7]
  inhibition at 20 µM: 87.2%
[1]; [8]
  inhibition at 20 µM: 88.6%
[2]
  inhibition at 0.2 µM: 38.4%
  inhibition at 2 µM: 47.4%
  inhibition at 20 µM: 100%
Raw264.7 cells; confirmation, 0.2 uM
  QIM Confirm CellNb 0.2 uM: 437.4
Raw264.7 cells; confirmation, 2 uM
  QIM Confirm CellNb 2 uM: 527.9
Raw264.7 cells; confirmation, 20 uM
  QIM Confirm CellNb 20 uM: 243.8
Raw264.7 cells; primary screen, 20 μM
  Primary QIM CellNb: 324.5

## O=C(N/N=C/C=C/c1ccccc1)c1ccncc1 [IPK 000 013 68]
[1]; [5]
  inhibition at 0.2 µM: 50.9%
[1]; [6]
  inhibition at 2 µM: 102%
[1]; [7]
  inhibition at 20 µM: 67.2%
[1]; [8]
  inhibition at 20 µM: 65%
[2]
  inhibition at 0.2 µM: 50.4%
  inhibition at 2 µM: 77.1%
  inhibition at 20 µM: 77.6%
Raw264.7 cells; confirmation, 0.2 uM
  QIM Confirm CellNb 0.2 uM: 400.1
Raw264.7 cells; confirmation, 2 uM
  QIM Confirm CellNb 2 uM: 528.8
Raw264.7 cells; confirmation, 20 uM
  QIM Confirm CellNb 20 uM: 438.8
Raw264.7 cells; primary screen, 20 μM
  Primary QIM CellNb: 276.3

## N#CC(C#N)=NNc1ccc(I)cc1 [IPK 000 007 31]
[1]; [3]
  inhibition at 20 µM: -28.2%
[1]
  inhibition at 0.2 µM: 45.7%
  inhibition at 2 µM: 14.7%
[1]; [4]
  inhibition at 20 µM: 25.8%
[2]
  inhibition at 0.2 µM: 41%
  inhibition at 2 µM: 33%
  inhibition at 20 µM: 80.8%
Raw264.7 cells
  Primary QIM CellNb: 61.3
  QIM Confirm CellNb 0.2 uM: 393.1
  QIM Confirm CellNb 2 uM: 308.8
  QIM Confirm CellNb 20 uM: 166.5

## COc1ccccc1OCCNC(=O)c1cc([N+](=O)[O-])cc([N+](=O)[O-])c1 [IPK 000 027 74]
[1]; [3]
  inhibition at 20 µM: 87.2%
[1]
  inhibition at 0.2 µM: -2.7%
  inhibition at 2 µM: 83.3%
[1]; [4]
  inhibition at 20 µM: 96.9%
[2]
  inhibition at 0.2 µM: 43.5%
  inhibition at 2 µM: 97.5%
  inhibition at 20 µM: 100%
Raw264.7 cells
  Primary QIM CellNb: 366.0
  QIM Confirm CellNb 0.2 uM: 268.5
  QIM Confirm CellNb 2 uM: 478.8
  QIM Confirm CellNb 20 uM: 435.8

## CCOC(=O)/N=C(\NC(C)=O)c1cccc(Cl)c1 [IPK 000 033 61]
[1]; [5]
  inhibition at 0.2 µM: 16.2%
[1]; [6]
  inhibition at 2 µM: 13.8%
[1]; [7]
  inhibition at 20 µM: 62.9%
[1]; [8]
  inhibition at 20 µM: 31.6%
[2]
  inhibition at 0.2 µM: 51.6%
  inhibition at 2 µM: 37.6%
  inhibition at 20 µM: 67.1%
Raw264.7 cells; confirmation, 0.2 uM
  QIM Confirm CellNb 0.2 uM: 210.8
Raw264.7 cells; confirmation, 2 uM
  QIM Confirm CellNb 2 uM: 434.1
Raw264.7 cells; confirmation, 20 uM
  QIM Confirm CellNb 20 uM: 111.8
Raw264.7 cells; primary screen, 20 μM
  Primary QIM CellNb: 188.3

## O=[N+]([O-])c1ccc(/C=N/c2ccccc2O)cc1 [IPK 000 040 14]
[1]; [5]
  inhibition at 0.2 µM: 20.4%
[1]; [6]
  inhibition at 2 µM: 15.6%
[1]; [7]
  inhibition at 20 µM: 18.1%
[1]; [8]
  inhibition at 20 µM: -38.6%
[2]
  inhibition at 0.2 µM: 38.7%
  inhibition at 2 µM: 46.8%
  inhibition at 20 µM: 68.4%
Raw264.7 cells; confirmation, 0.2 uM
  QIM Confirm CellNb 0.2 uM: 321.4
Raw264.7 cells; confirmation, 2 uM
  QIM Confirm CellNb 2 uM: 262.3
Raw264.7 cells; confirmation, 20 uM
  QIM Confirm CellNb 20 uM: 330.0
Raw264.7 cells; primary screen, 20 μM
  Primary QIM CellNb: 95.5

## CC(C)c1ccc(CNC(=O)c2cc([N+](=O)[O-])cc([N+](=O)[O-])c2)cc1 [IPK 000 027 78]
[1]; [5]
  inhibition at 0.2 µM: 33%
[1]; [6]
  inhibition at 2 µM: 99.3%
[1]; [7]
  inhibition at 20 µM: 96.3%
[1]; [8]
  inhibition at 20 µM: 79.6%
[2]
  inhibition at 0.2 µM: 71.7%
  inhibition at 2 µM: 97.5%
  inhibition at 20 µM: 78.2%
Raw264.7 cells; confirmation, 0.2 uM
  QIM Confirm CellNb 0.2 uM: 366.0
Raw264.7 cells; confirmation, 2 uM
  QIM Confirm CellNb 2 uM: 543.5
Raw264.7 cells; confirmation, 20 uM
  QIM Confirm CellNb 20 uM: 499.4
Raw264.7 cells; primary screen, 20 μM
  Primary QIM CellNb: 332.0

## O=C(NCCOc1ccccc1Cl)c1cc([N+](=O)[O-])cc([N+](=O)[O-])c1 [IPK 000 027 72]
[1]; [5]
  inhibition at 0.2 µM: 29.3%
[1]; [6]
  inhibition at 2 µM: 77.7%
[1]; [7]
  inhibition at 20 µM: 100%
[1]; [8]
  inhibition at 20 µM: 82.6%
[2]
  inhibition at 0.2 µM: 35.1%
  inhibition at 2 µM: 97.6%
  inhibition at 20 µM: 101%
Raw264.7 cells; confirmation, 0.2 uM
  QIM Confirm CellNb 0.2 uM: 267.0
Raw264.7 cells; confirmation, 2 uM
  QIM Confirm CellNb 2 uM: 440.4
Raw264.7 cells; confirmation, 20 uM
  QIM Confirm CellNb 20 uM: 238.1
Raw264.7 cells; primary screen, 20 μM
  Primary QIM CellNb: 333.3
